Target: T1, POLQ (Homo sapiens, UniProt O75417)
T1 construct: the N-terminal active peptide segment of POLQ with ATPase activity (M1-N899) is co-incubated with the compound; purchased Pharmaron
Experiment: POLQ enzyme activity inhibition experiment (ATPase, NADH-coupled)
Type: biochemical
Protocol: Brief introduction to experimental principle: After the N-terminal active peptide segment of POLQ with ATPase activity (M1-N899) is co-incubated with the compound, this peptide segment reacts with substrate dT50 under the action of ATP to generate ADP. The generated ADP then participates in the subsequent NADH oxidation-coupled enzymatic reaction, catalyzing the conversion of NADH to NAD^+. The reduction in the OD value of NADH at 340 nm was measured using the Envision microplate reader from Perkin Elmer to reflect enzyme activity.
Experimental methods: The POLQ enzyme was diluted to 100 nM with a reaction buffer (20 mM Tris HCl (pH 7.80), 80 mM KCl, 10 mM MgCl2, 1 mM DTT, 0.01% w/v bovine serum albumin, 0.01% v/v Tween-20, 5% v/v glycerol). The test compound was diluted to different concentrations with dimethyl sulfoxide (DMSO) using the Echo 650 pipetting system and transferred to a 384-well plate, 20 µL/well of 100 nM POLQ was added, and the mixture was incubated at room temperature for 15 min. […] After the 384-well plate was reacted at room temperature for 20 min, the OD value at 340 nm was read using an Envision microplate reader.
Inhibition rates were calculated and fitted using XLfit software to give the IC50 of the compound. […]

T1 sequence (O75417 1-899): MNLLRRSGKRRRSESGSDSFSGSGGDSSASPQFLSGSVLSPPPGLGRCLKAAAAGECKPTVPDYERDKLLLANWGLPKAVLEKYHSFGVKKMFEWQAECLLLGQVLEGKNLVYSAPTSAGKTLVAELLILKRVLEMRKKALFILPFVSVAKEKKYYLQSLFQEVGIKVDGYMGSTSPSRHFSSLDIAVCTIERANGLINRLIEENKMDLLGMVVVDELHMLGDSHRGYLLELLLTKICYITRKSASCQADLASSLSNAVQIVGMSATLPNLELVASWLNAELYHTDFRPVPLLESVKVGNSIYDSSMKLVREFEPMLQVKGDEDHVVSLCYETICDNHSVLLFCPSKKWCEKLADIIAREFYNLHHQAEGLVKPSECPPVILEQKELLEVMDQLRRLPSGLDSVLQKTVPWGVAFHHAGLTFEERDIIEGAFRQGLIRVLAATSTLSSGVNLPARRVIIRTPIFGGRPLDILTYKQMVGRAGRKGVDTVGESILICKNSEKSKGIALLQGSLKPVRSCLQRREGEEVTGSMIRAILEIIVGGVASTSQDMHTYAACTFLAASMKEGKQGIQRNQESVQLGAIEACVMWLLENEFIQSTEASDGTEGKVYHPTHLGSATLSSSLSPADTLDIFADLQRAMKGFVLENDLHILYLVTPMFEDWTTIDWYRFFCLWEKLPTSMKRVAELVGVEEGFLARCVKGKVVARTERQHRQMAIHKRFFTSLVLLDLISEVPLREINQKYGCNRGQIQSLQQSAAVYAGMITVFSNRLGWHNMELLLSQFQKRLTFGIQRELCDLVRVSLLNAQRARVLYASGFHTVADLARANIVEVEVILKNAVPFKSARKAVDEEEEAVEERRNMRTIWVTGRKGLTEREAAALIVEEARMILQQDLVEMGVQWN

In the case of `COc1ccc(Cl)cc1-c1cc(C)ncc1C(=O)Nc1nc2ncc(-c3ccc(C#N)cc3)nc2s1` [Compound of formula I, 4-(5-chloro-2-methoxyphenyl)-N-[6-(4-cyanophenyl)thiazolo[4,5-b]pyrazin-2-yl]-6-methylnicotinamide], the IC50 is reported as under 100 nM.

— patent EP4745145A1, “SALT OF THIAZOLOPYRAZINE COMPOUND OR CRYSTAL THEREOF AND USE THEREOF” (Simcere Zaiming Pharmaceutical Co., Ltd., priority 2023, dated 2025)
